Reference: patent US20120035180A1, “PHARMACEUTICAL COMPOSITION FOR TREATING CANCER COMPRISING CHLORIN E6-FOLIC ACID CONJUGATE COMPOUND AND CHITOSAN” (priority 2009, published 2012)

Assays:
sarcoma M-1 [1] = experiment: Necrotic area in sarcoma M-1 after PDT; format: in vivo, rats; conditions: 10.0 mg/kg, 1 hr exposure after application
Method: After fixation, transverse sections of the tumor nodule in its highest diameter were made, and pictures were taken by a camera connected to a computer.
For quantitative assessment of necroses formed after PDT, computer analysis of color tints of histo-topographic tumor slides was performed using a special program.
The program included an algorithm of blue color identification (Evans blue), which stained viable areas of the tumor. Tumor areas killed from direct cytotoxic effect or due to structural-functional disorders of microcirculation were not stained in blue. The ratio of all non-stained dots to the total amount of dots in the fence of the tumor slide was considered to be the destruction efficiency.
For this purpose, a laser medical instrument “ ? 680-2000” (BIOSPEC, Moscow) was used to perform the exposure at a wavelength of 670 nm in a dose of 100 J/cm^2. The power density was 0.51 W/cm^2, the output power was 0.4 W, and the spot light diameter was 1 cm. Time of exposure was […]. Monitoring over radiating power was conducted by a universal power meter included in the laser device “ ? 680-2000”.

Hela cells [2] = experiment: Phototoxicity, 24 h incubation, 1.5-15 joule/cm^2; format: cell-based; conditions: 670-690 nm
Method: In other experiment, the cells were incubated with photosensitizers at 37° C. for 24 hours, and irradiated by exposed on ice by a laser medical device “LD 680-2000” (wavelength of 670-690 nm) in a dose of 1.5-15 joule/cm^2.

[3] = Generation of singlet oxygen (luminescence at 1270 nm); format: physicochemical; conditions: air saturated buffer solution, room temperature
Method: Based on new Hamamatsu FEU with InP/InGaAsP semi-conductor photocathodes, a highly sensitive laser fluorometer for registration of luminescence signals in the range of 950-1400 nm with nanosecond time resolution was used.
Photoresponse of this process (φΔ) was measured by a relative method through integral intensity of singlet oxygen luminescence at a wavelength of 1270 nm. Excitation was conducted at a wavelength of 531 nm (pulse energy 4 microJ, frequency 1kHz). Tests were made in air saturated buffer solutions at room temperature. […] The φΔ in D2O was considered as 0.7.
To analyze kinetic curves of singlet oxygen luminescence, the following function was used:
wherein A is a coefficient depending on initial concentrations of interacted reagents, and k1 and k2 are constants of luminescence signal increase and extinction, respectively.
In the case when the deactivation rate constant Kτ of the photosensitizer triplet state exceeds the deactivation rate constant KΔ of the molecular oxygen […] state, the constant of increase k1 corresponds to Kτ, and constant of extinction k2 corresponds to KΔ. In the case of Kτ<KΔ, inversion of the kinetics of singlet oxygen luminescence occurs. In this case, k2=Kτ and k1=KΔ. […] Thus, based on kinetic data, the life times of singlet oxygen and triplet state can be calculated.

HeLa cell culture = experiment: Phototoxicity (photodynamic activity), 3.5 h incubation, 3.3 joule/cm^2; format: cell-based; parameters: number of HELA cells (relative to the control): unit not given here; conditions: for number of HELA cells (relative to the control): incubation 3.5 hours
Method: To examine the photodynamic effects of a photosensitizer on a HeLa cell culture, the photosensitizer solution was added to the nutrient media at a final concentration of 0.1, 0.5, 1.0, 5.0 or 10 mcg/ml on day 3 after transplanting the cell culture into flasks. The flasks were wrapped with a light protecting cover, and incubated at 37° C. for 3.5 hours. Then, the cells were washed with Hank's solution, and exposed on ice by a laser medical device “LD 680-2000” (wavelength: 670-690 nm) at a dose of 3.3 joule/cm^2. After 20-24 hours, the available cell monolayer was dispersed using a 0.02%-Versene solution, and the number of tumor cells was calculated in Goriaev's chamber. For each point, 3 flasks were used.

Hela cells [4] = experiment: Accumulation in Hela cells; format: cell-based; conditions: for concentration in Hela cells: 2×10^−7 M/l, 37° C.
Method: The cellular accumulation and the targeted delivery of the photoactive compounds were investigated using Hela cells, which is one of the numerous tumor cell types that overexpress folate receptors.
Cells were cultivated for 3 days in medium 199, and transferred to Hank's solution/medium 199 (9/1). After 3 hours, the cell were collected by trypsin treatment from the substrate and placed in Hank's solution (10^5 κπ/ml). To cell suspensions, chlorin e6 conjugates were added at a concentration of 2×10^−7 M/l, and incubated at 37° C. After 1, 5, 10, 15, and 24 hours, the samples were centrifuged, the pellet was washed with the cooled Hank's solution, and transferred to Hank's solution at a concentration being equal to that in the initial suspension.

sarcoma M-1 [5] = experiment: Growth dynamics and growth inhibition of sarcoma M-1 after PDT; format: in vivo, rats
Method: The power density was 0.51 W/cm^2, the output power was 0.4 W, and the spot light diameter was 1 cm. […] Monitoring over radiating power was conducted by a universal power meter included in the laser device “ ? 680-2000”.

## [γ-(6-aminohexyl)folic acid]-chlorin e6 [chlorin e6 conjugate]
Sarcoma M-1 [1]
  anti-tumor effect of PDT: most prominent anti-tumor effect
Hela cells [2]
  phototoxicity / photosensitivity in survival test: improved the photosensitivity
[3]
  τt (life time in the triplet state) from singlet oxygen luminescence kinetics: 2.0±0.2 microsec.
  τΔ (life time of singlet oxygen) from luminescence kinetics: 3.6±0.2 microsec.
HeLa cell culture; concentration of 5-10 mcg/ml, photoexposure
  inhibition of proliferation of Hela cells: fully inhibited
HeLa cell culture; photoexposure 3.3 joule/cm^2, conc. 0.1 mcg/ml
  number of HELA cells (relative to the control): 65.1
HeLa cell culture; photoexposure 3.3 joule/cm^2, conc. 0.5 mcg/ml
  number of HELA cells (relative to the control): 42.3
HeLa cell culture; photoexposure 3.3 joule/cm^2, conc. 1.0 mcg/ml
  number of HELA cells (relative to the control): 12.6
HeLa cell culture; photoexposure 3.3 joule/cm^2, conc. 5.0 mcg/ml
  number of HELA cells (relative to the control): 0.1
Hela cells [4]; incubation time 1 hours
  concentration in Hela cells: 0.40 relative units/10^4cl.
Hela cells [4]; incubation time 5 hours
  concentration in Hela cells: 1.80 relative units/10^4cl.
Hela cells [4]; incubation time 10 hours
  concentration in Hela cells: 2.50 relative units/10^4cl.
Hela cells [4]; incubation time 15 hours
  concentration in Hela cells: 12.5 relative units/10^4cl.
Hela cells [4]; incubation time 24 hours
  concentration in Hela cells: 15.0 relative units/10^4cl.
Hela cells [4]; Hela cells
  kinetic of binding with cells: increases linearly over 20 hours
Sarcoma M-1 [5]; 2.5 mg/100 g + 100 J/cm^2 for 1 h, day 7
  Growth inhibition rate of sarcoma M-1 of rats in volume to the control: 47.5
Sarcoma M-1 [5]; 2.5 mg/100 g + 100 J/cm^2 for 1 h, day 10
  Growth inhibition rate of sarcoma M-1 of rats in volume to the control: 79.4
Sarcoma M-1 [5]; 2.5 mg/100 g + 100 J/cm^2 for 1 h, day 12
  Growth inhibition rate of sarcoma M-1 of rats in volume to the control: 87.6
Sarcoma M-1 [5]; 2.5 mg/100 g + 100 J/cm^2 for 1 h, day 14
  Growth inhibition rate of sarcoma M-1 of rats in volume to the control: 89.8
Sarcoma M-1 [5]; 2.5 mg/100 g + 100 J/cm^2 for 1 h, day 17
  Growth inhibition rate of sarcoma M-1 of rats in volume to the control: 94.8
Sarcoma M-1 [5]; 2.5 mg/100 g + 100 J/cm^2 for 1 h, day 19
  Growth inhibition rate of sarcoma M-1 of rats in volume to the control: 94.1
Sarcoma M-1 [5]; 2.5 mg/100 g + 100 J/cm^2 for 1 h, day 21
  Growth inhibition rate of sarcoma M-1 of rats in volume to the control: 94.2
Sarcoma M-1 [5]; 2.5 mg/100 g + 100 J/cm^2 for 1 h, day 24
  Growth inhibition rate of sarcoma M-1 of rats in volume to the control: 93.6
Sarcoma M-1 [5]; 2.5 mg/kg + 100 J/cm^2 for 1 h, day 7 after tumor transplant
  Growth dynamics of sarcoma M-1 (volume): 0.25 ± 0.03 cm^3
Sarcoma M-1 [5]; 2.5 mg/kg + 100 J/cm^2 for 1 h, day 10 after tumor transplant
  Growth dynamics of sarcoma M-1 (volume): 0.28 ± 0.03 cm^3
Sarcoma M-1 [5]; 2.5 mg/kg + 100 J/cm^2 for 1 h, day 12 after tumor transplant
  Growth dynamics of sarcoma M-1 (volume): 0.34 ± 0.06 cm^3
Sarcoma M-1 [5]; 2.5 mg/kg + 100 J/cm^2 for 1 h, day 14 after tumor transplant
  Growth dynamics of sarcoma M-1 (volume): 0.41 ± 0.09 cm^3
Sarcoma M-1 [5]; 2.5 mg/kg + 100 J/cm^2 for 1 h, day 17 after tumor transplant
  Growth dynamics of sarcoma M-1 (volume): 0.46 ± 0.11 cm^3
Sarcoma M-1 [5]; 2.5 mg/kg + 100 J/cm^2 for 1 h, day 19 after tumor transplant
  Growth dynamics of sarcoma M-1 (volume): 0.69 ± 0.27 cm^3
Sarcoma M-1 [5]; 2.5 mg/kg + 100 J/cm^2 for 1 h, day 21 after tumor transplant
  Growth dynamics of sarcoma M-1 (volume): 0.96 ± 0.38 cm^3
Sarcoma M-1 [5]; 2.5 mg/kg + 100 J/cm^2 for 1 h, day 24 after tumor transplant
  Growth dynamics of sarcoma M-1 (volume): 1.19 ± 0.48 cm^3
Sarcoma M-1 [5]; 5 mg/100 g + 100 J/cm^2 for 1 h, day 7
  Growth inhibition rate of sarcoma M-1 of rats in volume to the control: 36.9
Sarcoma M-1 [5]; 5 mg/100 g + 100 J/cm^2 for 1 h, day 10
  Growth inhibition rate of sarcoma M-1 of rats in volume to the control: 77.9
Sarcoma M-1 [5]; 5 mg/100 g + 100 J/cm^2 for 1 h, day 12
  Growth inhibition rate of sarcoma M-1 of rats in volume to the control: 89.1
Sarcoma M-1 [5]; 5 mg/100 g + 100 J/cm^2 for 1 h, day 14
  Growth inhibition rate of sarcoma M-1 of rats in volume to the control: 92.6
Sarcoma M-1 [5]; 5 mg/100 g + 100 J/cm^2 for 1 h, day 17
  Growth inhibition rate of sarcoma M-1 of rats in volume to the control: 95.8
Sarcoma M-1 [5]; 5 mg/100 g + 100 J/cm^2 for 1 h, day 19
  Growth inhibition rate of sarcoma M-1 of rats in volume to the control: 95.9
Sarcoma M-1 [5]; 5 mg/100 g + 100 J/cm^2 for 1 h, day 21
  Growth inhibition rate of sarcoma M-1 of rats in volume to the control: 96.9
Sarcoma M-1 [5]; 5 mg/100 g + 100 J/cm^2 for 1 h, day 24
  Growth inhibition rate of sarcoma M-1 of rats in volume to the control: 97.1
Sarcoma M-1 [5]; 5 mg/kg + 100 J/cm^2 for 1 h, day 7 after tumor transplant
  Growth dynamics of sarcoma M-1 (volume): 0.29 ± 0.02 cm^3
Sarcoma M-1 [5]; 5 mg/kg + 100 J/cm^2 for 1 h, day 10 after tumor transplant
  Growth dynamics of sarcoma M-1 (volume): 0.300 ± .03 cm^3
Sarcoma M-1 [5]; 5 mg/kg + 100 J/cm^2 for 1 h, day 12 after tumor transplant
  Growth dynamics of sarcoma M-1 (volume): 0.30 ± 0.03 cm^3
Sarcoma M-1 [5]; 5 mg/kg + 100 J/cm^2 for 1 h, day 14 after tumor transplant
  Growth dynamics of sarcoma M-1 (volume): 0.30 ± 0.03 cm^3
Sarcoma M-1 [5]; 5 mg/kg + 100 J/cm^2 for 1 h, day 17 after tumor transplant
  Growth dynamics of sarcoma M-1 (volume): 0.37 ± 0.05 cm^3
Sarcoma M-1 [5]; 5 mg/kg + 100 J/cm^2 for 1 h, day 19 after tumor transplant
  Growth dynamics of sarcoma M-1 (volume): 0.47 ± 0.11 cm^3
Sarcoma M-1 [5]; 5 mg/kg + 100 J/cm^2 for 1 h, day 21 after tumor transplant
  Growth dynamics of sarcoma M-1 (volume): 0.50 ± 0.14 cm^3
Sarcoma M-1 [5]; 5 mg/kg + 100 J/cm^2 for 1 h, day 24 after tumor transplant
  Growth dynamics of sarcoma M-1 (volume): 0.54 ± 0.17 cm^3
Sarcoma M-1 [5]; 10 mg/100 g + 100 J/cm^2 for 1 h, day 7
  Growth inhibition rate of sarcoma M-1 of rats in volume to the control: 56.5
Sarcoma M-1 [5]; 10 mg/100 g + 100 J/cm^2 for 1 h, day 10
  Growth inhibition rate of sarcoma M-1 of rats in volume to the control: 86.0
Sarcoma M-1 [5]; 10 mg/100 g + 100 J/cm^2 for 1 h, day 12
  Growth inhibition rate of sarcoma M-1 of rats in volume to the control: 93.8
Sarcoma M-1 [5]; 10 mg/100 g + 100 J/cm^2 for 1 h, day 14
  Growth inhibition rate of sarcoma M-1 of rats in volume to the control: 95.8
Sarcoma M-1 [5]; 10 mg/100 g + 100 J/cm^2 for 1 h, day 17
  Growth inhibition rate of sarcoma M-1 of rats in volume to the control: 98.1
Sarcoma M-1 [5]; 10 mg/100 g + 100 J/cm^2 for 1 h, day 19
  Growth inhibition rate of sarcoma M-1 of rats in volume to the control: 95.2
Sarcoma M-1 [5]; 10 mg/100 g + 100 J/cm^2 for 1 h, day 21
  Growth inhibition rate of sarcoma M-1 of rats in volume to the control: 98.8
Sarcoma M-1 [5]; 10 mg/100 g + 100 J/cm^2 for 1 h, day 24
  Growth inhibition rate of sarcoma M-1 of rats in volume to the control: 98.9
Sarcoma M-1 [5]; 10 mg/kg + 100 J/cm^2 for 1 h, day 7 after tumor transplant
  Growth dynamics of sarcoma M-1 (volume): 0.20 ± 0.03 cm^3
Sarcoma M-1 [5]; 10 mg/kg + 100 J/cm^2 for 1 h, day 10 after tumor transplant
  Growth dynamics of sarcoma M-1 (volume): 0.19 ± 0.04 cm^3
Sarcoma M-1 [5]; 10 mg/kg + 100 J/cm^2 for 1 h, day 12 after tumor transplant
  Growth dynamics of sarcoma M-1 (volume): 0.17 ± 0.03 cm^3
Sarcoma M-1 [5]; 10 mg/kg + 100 J/cm^2 for 1 h, day 14 after tumor transplant
  Growth dynamics of sarcoma M-1 (volume): 0.17 ± 0.03 cm^3
Sarcoma M-1 [5]; 10 mg/kg + 100 J/cm^2 for 1 h, day 17 after tumor transplant
  Growth dynamics of sarcoma M-1 (volume): 0.17 ± 0.03 cm^3
Sarcoma M-1 [5]; 10 mg/kg + 100 J/cm^2 for 1 h, day 19 after tumor transplant
  Growth dynamics of sarcoma M-1 (volume): 0.17 ± 0.03 cm^3
Sarcoma M-1 [5]; 10 mg/kg + 100 J/cm^2 for 1 h, day 21 after tumor transplant
  Growth dynamics of sarcoma M-1 (volume): 0.20 ± 0.03 cm^3
Sarcoma M-1 [5]; 10 mg/kg + 100 J/cm^2 for 1 h, day 24 after tumor transplant
  Growth dynamics of sarcoma M-1 (volume): 0.20 ± 0.03 cm^3
